In US8133991B2, “Allergen inactivating agent” (Kao Corporation, priority 2002, dated 2012):

Assays:
[1] = target: T1, Dermatophagoides allergen Derf2 (Dermatophagoides farinae, UniProt Q00855); experiment: Derf2 sandwich ELISA of mite extract after treatment with sample; type: biochemical; conditions: 1% sample solution mixed 1:1 with 0.5 mg/mL mite extract, room temperature 2 hours; distilled water control = 1; lower = more inactivation
T1 construct: purchased Torii Pharmaceutical Co., Ltd; host or cells: mite extract (natural allergen extract)
T1 sequence (Q00855 18-146): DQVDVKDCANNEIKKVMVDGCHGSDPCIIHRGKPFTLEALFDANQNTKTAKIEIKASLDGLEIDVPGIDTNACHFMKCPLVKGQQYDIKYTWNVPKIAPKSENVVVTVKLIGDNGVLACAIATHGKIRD
Procedure: (1) The polysaccharide derivative of the present invention was dissolved in distilled water to prepare 1% solution. Quantity of Dermatophagoides allergen was measured as a typical allergen in the indoor environment by sandwich ELISA using a mouse monoclonal antibody. More specifically, quantity of Dermatophagoides allergen Derf2 was measured by using Derf2 antibody and a labeled antibody manufactured by Asahi Brewery, Ltd.
The allergen inactivation effect is indicated in terms of the ratio in relation to the control wherein the sample was treated in the same way except for the use of distilled water, namely, by assuming the Derf2 quantity in the control as 1.
(2) Scratch extract “mite” (manufactured by Torii Pharmaceutical Co., Ltd.) was placed in a dialysis tube, and dialyzed overnight in 10% PBS (4° C.) to remove glycerol in the extract. […] Quantity of Derf2 in the reaction solution was determined by using anti-Derf2 monoclonal antibody (15E11) and HRP-labeled anti-Derf2 monoclonal antibody (13A4) manufactured by Asahi Brewery, Ltd. in accordance with the protocol attached with the product, and using Derf2 for the Derf2 antigen for depicting the calibration curve.
Quantity of the Derf2 treated with various samples was calculated in relation to the quantity of Derf2 treated with the distilled water, which was assumed to be 1.

[2] = tested on: Cat epithelium; experiment: Quidel Allergen Screen: reactivity of immobilized allergen with allergy patient IgE; type: biochemical; conditions: 1% sample, 100 μL/stick, room temperature 2 hours; distilled water control = 0
Excerpt: (§1) Quidel Allergen Screen (manufactured by Xenith Biomed) which is a reagent for detecting antigen-specific IgE antibody by using enzyme-labeled anti-IgE antibody was used to measure the reactivity between the allergen (house dust, Dermatophagoides farinae, Dermatophagoides pteronyssinus, cat epidermis, Cryptomeria japonica, ragweed, and the like) immobilized on a dip stick and the IgE antibody from the allergy patient by the procedure as described below.
(§2) The allergen stick was placed in a wetting box with the pad side facing upward, and the stick was impregnated with the product of the present invention adjusted to 1% at an amount of 100 μL/stick and left at room temperature for 2 hours. Each pad was washed evenly for 30 seconds with physiological saline in a washing bottle, and 50 μL/stick of the serum collected from an allergy patient was added dropwise to the pad and the serum was evenly spread. The wetting box was covered with lid and allowed to stand for 18 hours at room temperature. After the completion of the reaction, the pad was washed evenly for 20 seconds by the physiological saline in a washing bottle.
(§3) About 1 mL of enzyme-labeled anti-IgE antibody was placed in a test tube, and allergen stick is placed in the test tube with the pad facing downward after washing the allergen stick and shaking off the excess water, and the reaction was allowed to take place at room temperature for 30 minutes. After the termination of the reaction, each pad was evenly washed with tap water for 2 minutes. At this occasion, disappearance of the red color on the pad was confirmed. About 1 mL of the substrate solution was poured into test tube, and allergen stick was placed in the test tube with the pad facing downward after washing the allergen stick and shaking off the excess water, and the reaction was allowed to take place at room temperature for 30 minutes. After the completion of the reaction, reaction was terminated by absorbing the water impregnated in the pad with a paper towel by gently patting the pad with the paper towel from the rear side of the pad. Next, intensity of the blue color developed was measured with an image analyzer, and decrease in the reactivity by the product of the present invention was calculated by the following equation by using the color intensity attained when the IgE from allergy patient was used with distilled water treatment for the control.
(§4) Allergen inactivation effect (%)=100−{(IgE reaction intensity when treated by the product of the present invention)−(reaction intensity of the negative control)}/{(IgE reaction intensity of the control treated by distilled water)−(reaction intensity of the negative control)×100

[3] = tested on: Dermatophagoides farinae; experiment: as above; type: biochemical; conditions: 1% sample, 100 μL/stick, room temperature 2 hours; distilled water control = 0
Excerpt: as §1, §2, §3, §4

[4] = tested on: Dermatophagoides pteronyssinus; experiment: as above; type: biochemical; conditions: 1% sample, 100 μL/stick, room temperature 2 hours; distilled water control = 0
Excerpt: as §1, §2, §3, §4

[5] = tested on: House dust 1; experiment: as above; type: biochemical; conditions: 1% sample, 100 μL/stick, room temperature 2 hours; distilled water control = 0
Excerpt: as §1, §2, §3, §4

[6] = tested on: Ceder; experiment: as above; type: biochemical, Cryptomeria japonica; conditions: 1% sample, 100 μL/stick, room temperature 2 hours; distilled water control = 0
Excerpt: as §1
The allergen stick was placed in a wetting box with the pad side facing upward, and the stick was impregnated with the product of the present invention adjusted to 1% at an amount of 100 μL/stick and left at room temperature for 2 hours. […]
About 1 mL of enzyme-labeled anti-IgE antibody was placed in a test tube, and allergen stick is placed in the test tube with the pad facing downward after washing the allergen stick and shaking off the excess water, and the reaction was allowed to take place at room temperature for 30 minutes. […] Next, intensity of the blue color developed was measured with an image analyzer, and decrease in the reactivity by the product of the present invention was calculated by the following equation by using the color intensity attained when the IgE from allergy patient was used with distilled water treatment for the control. […]

O=C(OC[C@H]1O[C@@H](OC(=O)c2cc(O)c(O)c(OC(=O)c3cc(O)c(O)c(O)c3)c2)[C@H](OC(=O)c2cc(O)c(O)c(OC(=O)c3cc(O)c(O)c(O)c3)c2)[C@@H](OC(=O)c2cc(O)c(O)c(OC(=O)c3cc(O)c(O)c(O)c3)c2)[C@@H]1OC(=O)c1cc(O)c(O)c(OC(=O)c2cc(O)c(O)c(O)c2)c1)c1cc(O)c(O)c(OC(=O)c2cc(O)c(O)c(O)c2)c1 [Tannic acid]
Quantity of Derf2 (Ratio to the control) [1]: 0.2 | Allergen inactivating effect (%) <Animal allergen> Cat epithelium [2]: 92% | Allergen inactivating effect (%) <Animal allergen> Dermatophagoides farinae [3]: 62% | Allergen inactivating effect (%) <Animal allergen> Dermatophagoides pteronyssinus [4]: 70% | Allergen inactivating effect (%) <Animal allergen> House dust 1 [5]: 83% | Allergen inactivating effect (%) <Plant allergen> Ceder [6]: 78%
